Experimental data reported in patent US20160280631A1, “ESTER COMPOUNDS INCLUDING TRIESTERS HAVING TERMINAL VICINAL ACYL GROUPS” (BIOSYNTHETIC TECHNOLOGIES, LLC., priority 2015, published 2016).

Experiment: kinematic viscosity (ASTM Method D445-97)
Type: physicochemical
Conditions: measured at 100° C.
Experimental: Except as otherwise described, pour point is measured by ASTM Method D97-96a, cloud point is measured by ASTM Method D2500, viscosity/kinematic viscosity is measured by ASTM Method D445-97, viscosity index is measured by ASTM Method D2270-93 (Reapproved 1998), specific gravity is measured by ASTM Method D4052, flash point is measured by ASTM Method D92, evaporative loss is measured by ASTM Method D5800, vapor pressure is measured by ASTM Method D5191, and acute aqueous toxicity is measured by Organization of Economic Cooperation and Development (OECD) 203.

Row | kinematic viscosity | SMILES
1 | less than 10 cSt | CCCCC(CC)COC(=O)CCCCCCCCC(COC(C)=O)OC(C)=O (centres unmarked) [Example 4]
2 | less than 10 cSt | CCCCC(CC)COC(=O)CCCCCCCCC(COC(=O)C(C)C)OC(=O)C(C)C (centres unmarked) [Example 5]
